Several values for one entry are separate records, joined by “and”; a condition that tells them apart may be missing. Equal values may be shown once. Entries after “also recorded” stand apart in the source; their conditions may differ. Marks after values point to notes of the source that are not given here.
What was measured:
thrombin time [1] = experiment: Intraduodenal absorption in rat, thrombin time (Examples 42 and 44); format: in vivo, male Wistar rats; design: Mean increase in thrombin time / Thrombin time increase: unit not given here; details: for Group mean thrombin time (s ± sd): 20 mg/kg intraduodenal
Protocol: • Place 10 mg of the relevant compound in an Eppendorf cup • Add 0.5 mL ethanol and shake for 10 minutes • Sonicate for 10 minutes • Add 1.5 mL of buffer • Shake for additional 15 minutes • Resulting target concentration: 5 mg/mL B. Intraduodenal Studies
The intraduodenal studies were performed using male Wistar rats, approximately 8 weeks of age and weighing between 250 and 300 g.
Food was withheld overnight prior to dosing and returned approximately 2 hours post-dose. Water was available ad libitum.
Animals were anaesthetised using gaseous halothane. A small incision was made in the abdomen and the duodenum located. Each animal received a single administration of control or test article by injection directly into the duodenum, using a constant dose volume of 4 mL/kg. Following administration the incision was closed using surgical staples.
Individual dose volumes were based on individual body weights, obtained on the day of dosing. Treatments employed for the study were as follows:
(§1) Approximately 0.6 mL of blood was collected via a tail vein into 3.8% tri sodium citrate tubes approximately 48 hours prior to dosing and again at 0.5, 1, 2, 4 and 8 hours post-dose.
(§2) Plasma was prepared by centrifugation at […] for 10 minutes at 4° C. Plasma was stored frozen (nominally −20° C.) prior to analysis in an automated coagulometer.
The thrombin times determined in example 42 were analysed to determine the standard deviation for increase in thrombin time, expressed as a percentage of the mean value (this is sometimes called the ‘coefficient of variation’).

[2] = Stability in enteric-coated hard gelatin capsules, HPLC-PDA (Example 41); format: physicochemical; details: for Amount of Tri50c: 10 mg content in 10 ml
Protocol: TRI 50c-standard (free acid) was stored in a desiccator over phosphorus pentoxide for 2 days for drying. Afterwards, the reference standard was weighed in a volumetric flask and dissolved in a mixture of acetonitrile and water (25/75 v/v %). Aliquots of the resulting solution (ST 1A) were diluted successively with water as shown in the dilution scheme of table 4.
The stored capsules of every batch at corresponding climatic condition were removed and 10 mg of the content was weighed in a 10 ml volumetric flask and dissolved in 10 ml of a mixture of acetonitrile/water (25/75 v/v %). These solutions were injected for impurity profile analysis and for quantification respectively.
The quantitative evaluation and the impurity profile analysis were performed using an HPLC-PDA method. The processing wavelength was set as 258 nm.

Thrombin Time (TT) = experiment: Oral administration of TGN 167 tablets to healthy male subjects (Example 47); format: in vivo, human
Protocol: TGN 167 tablets described above were administered via the oral route to 10 healthy male subjects as single doses (randomised double blind placebo controlled study). The group consisted of 10 healthy male volunteers, 9 of whom received active compound and one of whom received placebo. An amendment was introduced for the last panel, allowing 15 subjects (instead of 9) to receive a 600 mg dose. The interval between each dose of TGN 167 was one week minimum. The allocation of the placebo was such that each volunteer would only receive placebo once during the course of the study.
Orally administered doses were: 75 mg (one tablet), 150 mg (two tablets), 300 mg (four tablets) and 600 mg (eight tablets).

[3] = Comparative storage stability of sodium and calcium salts (Example 49); format: physicochemical; details: for Tri50c (w/w %, LOD corr.): corrected for loss on drying
Source text: In both studies the active pharmaceutical ingredient was stored in grip sealed double bags within a PE/PP screw cap closed cylinder.

thrombin time [4] = experiment: Oral absorption in rat, thrombin time (Example 43); format: in vivo, male Wistar rats; details: 20 mg/kg oral gavage
Protocol: The procedure of Example 42 was followed.
The per-oral studies were performed using male Wistar rats, approximately 8 weeks of age and weighing between 250 and 300 g.
Food was withheld overnight prior to dosing and returned approximately 2 hours post-dose. Water was available adlibitum.
Each animal received a single administration of control or test article by oral gavage, using a constant dose volume of 4 mL/kg.
Individual dose volumes were based on individual body weights, obtained on the day of dosing.
as §1, §2

thrombin time and APTT = experiment: Oral administration in dog, PK/PD (Example 45)
Protocol: Three female and three male dogs were used for each leg of the study. The weight range of the dogs was 8-18 kg.
The PD was measured as thrombin time and APTT using an automated coagulometer. Plasma concentrations were measured using an LCMS/MS method.
The dose was tailored on an individual basis for each dog.

[5] = individual rats dosed intraduodenally, listed as Ca Salt, hemicalcium salt, in s
[6] = capsules (no blister) 40° C./75% r.h.
[7] = capsules in blister 25° C./60% r.h.
[8] = capsules in blister 40° C./75% r.h.

COCCC[C@H](NC(=O)[C@@H]1CCCN1C(=O)[C@@H](Cc1ccccc1)NC(=O)OCc1ccccc1)B([O-])O.COCCC[C@H](NC(=O)[C@@H]1CCCN1C(=O)[C@@H](Cc1ccccc1)NC(=O)OCc1ccccc1)B([O-])O.[Ca+2] [TRI 50c calcium salt, Cbz-(R)-Phe-(S)-Pro-(R)-Mpg-B(OH)2 hemicalcium salt]
Group mean thrombin time (s ± sd) (thrombin time [1]; 0.5 hour): 42.0 ± 6.74 s | Group mean thrombin time (s ± sd) (thrombin time [1]; 1 hour): 34.0 ± 1.89 s | Group mean thrombin time (s ± sd) (thrombin time [1]; 2 hour): 22.6 ± 5.10 s | Group mean thrombin time (s ± sd) (thrombin time [1]; 4 hour): 24.4 ± 2.41 s | Group mean thrombin time (s ± sd) (thrombin time [1]; 8 hour): 22.4 ± 1.73 s | Group mean thrombin time (s ± sd) (thrombin time [1]; −48 hour (pre-dose)): 21.6 ± 1.77 s | Mean increase in thrombin time (thrombin time [1]; 0.5 h minus 0 h, intraduodenal): 20.50 | Thrombin time, 0 h (thrombin time [1]; [5]): 21.97 and 18.75 and 23.57 and 21.57 | Thrombin time, 0.5 h (thrombin time [1]; [5]): 35.32 and 45.98 and 37.27 and 49.30 | Thrombin time increase (thrombin time [1]; individual rats, 0.5 h minus 0 h, listed as Ca Salt, hemicalcium salt): 13.35 and 27.23 and 13.70 and 27.73 | Benzaldeh. % Area in impurity profile [2, 6]: 3.64 % Area | Imp.I % Area in impurity profile [2, 6]: 0.84 % Area | Amount of Tri50c [2, 6]: 780.097 µg/mL | Benzaldeh. % Area in impurity profile [2, 7]: 1.29 % Area | Amount of Tri50c [2, 7]: 930.903 µg/mL | Benzaldeh. % Area in impurity profile [2, 8]: 2.37 % Area | Amount of Tri50c [2, 8]: 786.223 µg/mL | Purity (HPLC % Area) T1 ([2]; capsules in blister, 1.5 month 25° C./60% r.h., hemicalcium salt): 98.0 HPLC % Area | Purity (HPLC % Area) T1 ([2]; capsules in blister, 1.5 month 25° C./60% r.h., listed as TRI50C Ca Salt, hemicalcium salt): 98.02 HPLC % Area | Purity (HPLC % Area) T1 ([2]; capsules in blister, 1.5 month 40° C./75% r.h., hemicalcium salt): 97.2 HPLC % Area | Purity (HPLC % Area) T1 ([2]; capsules in blister, 1.5 month 40° C./75% r.h., listed as TRI50C Ca Salt, hemicalcium salt): 97.19 HPLC % Area | Purity (HPLC % Area) T1 ([2]; capsules without blister, 1.5 month 40° C./75% r.h., hemicalcium salt): 95.0 HPLC % Area | Purity (HPLC % Area) T1 ([2]; capsules without blister, 1.5 month 40° C./75% r.h., listed as TRI50C Ca Salt, hemicalcium salt): 94.96 HPLC % Area | Purity (HPLC % Area) T0 ([2]; purity of the batch before storage, hemicalcium salt): 99.2^2) HPLC % Area and 99.2^2 HPLC % Area | safety assessments (Thrombin Time (TT); oral 75, 150, 300, 600 mg): No clinically significant findings | time after administration at which all TT had returned to baseline (Thrombin Time (TT); oral tablets): 10 h | effect on thrombin time (TT) (Thrombin Time (TT); oral tablets 75-600 mg): dose-related increase in the Thrombin Time (TT) | adverse clinical events (Thrombin Time (TT); study period of 24 hours, any dose): no adverse clinical events of either a general or cardiovascular nature | Color ([3]; T = 0): white | TRI 50c (% peak area) ([3]; T = 0): 99.4 % peak area | Tri50c (w/w %, LOD corr.) ([3]; T = 0): 99.7 w/w % | Appearance ([3]; T = 0, hemicalcium salt): powdery,; also recorded: odourless | Appearance ([3]; T = 1, 25° C./60% r.h.): powdery | Color ([3]; T = 1, 25° C./60% r.h.): white | TRI 50c (% peak area) ([3]; T = 1, 25° C./60% r.h.): 98.3 % peak area | Tri50c (w/w %, LOD corr.) ([3]; T = 1, 25° C./60% r.h.): 101.5 w/w % | Appearance ([3]; T = 1, 40° C./75% r.h.): powdery | Color ([3]; T = 1, 40° C./75% r.h.): white | TRI 50c (% peak area) ([3]; T = 1, 40° C./75% r.h.): 95.2 % peak area | Tri50c (w/w %, LOD corr.) ([3]; T = 1, 40° C./75% r.h.): 100.6 w/w % | Appearance ([3]; T = 1, −20° C.): powdery | Color ([3]; T = 1, −20° C.): white | TRI 50c (% peak area) ([3]; T = 1, −20° C.): 99.1 % peak area | Tri50c (w/w %, LOD corr.) ([3]; T = 1, −20° C.): 102.7 w/w % | Appearance ([3]; T = 3, 25° C./60% r.h.): powdery | Color ([3]; T = 3, 25° C./60% r.h.): white | TRI 50c (% peak area) ([3]; T = 3, 25° C./60% r.h.): 97.5 % peak area | Tri50c (w/w %, LOD corr.) ([3]; T = 3, 25° C./60% r.h.): 104.3 w/w % | Appearance ([3]; T = 3, 40° C./75% r.h.): powdery | Color ([3]; T = 3, 40° C./75% r.h.): white | TRI 50c (% peak area) ([3]; T = 3, 40° C./75% r.h.): 71.2 % peak area | Tri50c (w/w %, LOD corr.) ([3]; T = 3, 40° C./75% r.h.): 82.0 w/w % | Appearance ([3]; T = 3, −20° C.): powdery | Color ([3]; T = 3, −20° C.): white | TRI 50c (% peak area) ([3]; T = 3, −20° C.): 99.2 % peak area | Tri50c (w/w %, LOD corr.) ([3]; T = 3, −20° C.): 103.0 w/w % | TRI 50c (% peak area) ([3]; T = 12, 25° C./60% r.h.): 96.9 % peak area | Tri50c (w/w %, LOD corr.) ([3]; T = 12, 25° C./60% r.h.): 94.8 w/w % | Group mean thrombin times (s ± sd) (thrombin time [4]; 0.5 hour): 25.9 ± 3.05 s | Group mean thrombin times (s ± sd) (thrombin time [4]; 1 hour): 25.7 ± 1.94 s | Group mean thrombin times (s ± sd) (thrombin time [4]; 2 hour): 24.3 ± 0.98 s | Group mean thrombin times (s ± sd) (thrombin time [4]; 4 hour): 25.0 ± 1.31 s | Group mean thrombin times (s ± sd) (thrombin time [4]; 8 hour): 22.9 ± 3.46 s | Group mean thrombin times (s ± sd) (thrombin time [4]; −48 hour (pre-dose)): 23.4 ± 1.25 s | mean thrombin clotting time 8 hours post dose (thrombin time and APTT): 20.2 s | time of peak thrombin time post dose (thrombin time and APTT): three hours post dose | mean APTT at peak (thrombin time and APTT; 3 hours following administration, from 14.5 seconds): 18 s | mean thrombin clotting time at peak (C max) (thrombin time and APTT; base line 15 seconds (calcium salt), 15.4 seconds (TRI 50c)): 80.5 s | tolerance (thrombin time and APTT; enterically coated gelatine capsules): tolerated well with no adverse events | estimated bioavailability in some animals (thrombin time and APTT; estimated from thrombin clotting times): ≤ 50% | mean estimated bioavailability (thrombin time and APTT; estimated from thrombin clotting times, including two lower responders): 25% | peak thrombin clotting times achieved by all dogs (thrombin time and APTT; individual dogs): up to 148 seconds
